# Laboratory results published in patent US20230233576A1, “ECLITASERTIB FOR USE IN TREATING CONDITIONS INVOLVING SYSTEMIC HYPERINFLAMMATORY RESPONSE” (priority 2020, published 2023).
# Test system: adult participants hospitalized for severe COVID-19
# Experiment: Phase 1b severe COVID-19 study: ECG abnormalities (PCSA)
# Assay type: in vivo, human
# Details: 600 mg
# Experimental: Physical examination including lung auscultation and assessment of consciousness, vital sign, electrocardiogram (ECG) parameters were measured per protocol.
# For laboratory parameters (hematology, clinical chemistry, and urinalysis), vital signs, and ECG, incidences of potentially clinically significant abnormality (PCSA) values, actual values and change from baseline were summarized by treatment group.
# For all laboratory, vital signs and ECG parameters, raw data and change from baseline were summarized in descriptive statistics by treatment group and scheduled time of measurement, with the exception of AST, ALT and alkaline phosphatase: instead of summarizing data in descriptive statistics, participants' profiles were presented through graphics by treatment group and with a color code to identify sites. The reason was that blood samples were processed by local laboratories with different normal ranges. For the rest of clinical laboratory these parameters it is reasonable to pool data as they are standard procedure and no significant differences in normal ranges were expected.
# [1] = individual participant 70.0 kg, Discharge Before Day 15
# [2] = individual participant 87.2 kg, Discharge Before Day 15
# [3] = individual participant 120.0 kg, Day 15
# [4] = individual participant 125.0 kg, Discharge Before Day 15
structure (smiles),measurement,setting,value
CN1C(=O)[C@@H](NC(=O)c2nnc(Cc3ccccc3)[nH]2)COc2cccnc21 [RIPKl Inhibitor],HR (bpm) Delta (change from baseline),[1],−25 bpm
same,HR (bpm) Value,[1],76 bpm
same,PR % change from baseline,[1],0.0%
same,PR (ms) Value,[1],120 ms
same,QRS % change from baseline,[1],−38%
same,QRS (ms) Value,[1],100 ms
same,QT (ms) Delta (change from baseline),[1],100 ms
same,QT (ms) Value,[1],460 ms
same,QTcB (ms) Delta (change from baseline),[1],50 + ms
same,QTcB (ms) Value,[1],517 ++ ms
same,QTcF (ms) Delta (change from baseline),[1],75 ++ ms
same,QTcF (ms) Value,[1],495 ++ ms
same,HR (bpm) Delta (change from baseline),[2],18 bpm
same,HR (bpm) Value,[2],86 bpm
same,PR % change from baseline,[2],0.0%
same,PR (ms) Value,[2],150 ms
same,QRS % change from baseline,[2],25.0%
same,QRS (ms) Value,[2],100 ms
same,QT (ms) Delta (change from baseline),[2],30 ms
same,QT (ms) Value,[2],370 ms
same,QTcB (ms) Delta (change from baseline),[2],81 ++ ms
same,QTcB (ms) Value,[2],443 ms
same,QTcF (ms) Delta (change from baseline),[2],63 ++ ms
same,QTcF (ms) Value,[2],417 ms
same,HR (bpm) Delta (change from baseline),[3],0 bpm
same,HR (bpm) Value,[3],69 bpm
same,PR % change from baseline,[3],31.9%
same,PR (ms) Value,[3],124 ms
same,QRS % change from baseline,[3],−28%
same,QRS (ms) Value,[3],82 ms
same,QT (ms) Delta (change from baseline),[3],4 ms
same,QT (ms) Value,[3],482 ms
same,QTcB (ms) Delta (change from baseline),[3],4 ms
same,QTcB (ms) Value,[3],518 ++ ms
same,HR (bpm) Delta (change from baseline),[4],−6 bpm
same,HR (bpm) Value,[4],77 bpm
same,PR % change from baseline,[4],0.0%
same,PR (ms) Value,[4],160 ms
same,QRS % change from baseline,[4],−4.8%
same,QRS (ms) Value,[4],80 ms
same,QT (ms) Delta (change from baseline),[4],118 ms
same,QT (ms) Value,[4],466 ms
same,QTcB (ms) Delta (change from baseline),[4],121 ++ ms
same,QTcB (ms) Value,[4],530 ++ ms
